SMILES strings stand for the structures.

For `N#Cc1ccc(-c2cc3ccccc3[nH]c2=S)cc1`, the melting point (usually the temperature of the solid-liquid transition) was 284 to 289 °C.

`FC1(F)Oc2cccc(-c3n[nH]cc3I)c2O1` had a melting point of 142 °C.

Regarding `CC(C)=CCN1c2nc(Cl)ccc2NC(=O)[C@@H]1C`, the melting point was 136 to 137 °C.

`COc1cc(COc2cc(CCC(=O)O)n(-c3ccccc3)n2)ccc1OCc1nc(-c2ccccc2)oc1C` had a melting point of 157 to 158 °C.

`CN(c1ccncc1)N1CCc2cc(O)ccc2C1` had a melting point of 263 to 266 °C.

`O=C(O)C(Cc1ccccc1)Oc1ccc(-c2ccc(-c3c(Cc4ccccc4)sc4ccccc34)cc2)cc1` (stereo not given) came in with a melting point of 165 to 167 °C.

Take `CC(C)(C)OC(=O)/C(=C/c1ccccc1)C(=O)c1cc2ccccc2cc1O`: the melting point was in the range of 132 to 135 °C.

The molecule `CCNC(=O)c1cc(N=C=S)ccc1[Si](C)(C)C` yielded a melting point of 106 to 108 °C.

For the molecule `COc1cccc(C2(C(C)(C)O)CCN(C)CC2)c1OC`, the melting point was determined as 97 °C.

`CSc1ccc2c(c1)NC(=O)C2` yielded a melting point of 179 to 180 °C.

As for `CCc1cc(Cl)c(-n2ncc(C#N)c2N)c(Cl)c1`, the melting point fell in the range of 189 to 190 °C.

The molecule `CCOC(=O)c1cc2ccc(SCc3ccc(OC)cc3)cc2nc1Cl` displayed a melting point of 110 to 112 °C.

`N#Cc1cc(N)n(-c2c(Cl)cc(C(F)(F)F)cc2Cl)n1`: the melting point is 117 to 118 °C.

`CC12CCC(=O)CC1CCC1C2CCC2(C)C(C(N)=O)CCC12` (stereo not given) registered a melting point of 259 to 262 °C.

Regarding `CCCCNC(=O)c1ccc(-c2ccc3nnn(Cc4ccc5ncccc5c4)c3n2)cc1F`, the melting point fell in the range of 100 to 102 °C.

`C[C@H](N=C(C(=O)O)C(C)(C)C)c1ccccc1`: the melting point is 135 to 136 °C.

As to `CCCOCCOc1ccccc1-c1ccc2c(c1)C=C(C(=O)Nc1ccc(CN(C)C3CCOCC3)cc1)CCS2(=O)=O`, the melting point fell in the range of 164 to 166 °C.

`COc1cc(N)c(Cl)cc1C(=O)Cl` had a melting point of 242 °C.

For the molecule `O=c1c2ccc(Cl)cc2oc2c(OCc3ccccc3)cccc12`, the melting point was 154 °C.

`CC(C)(C)OC(=O)NCc1nc2c(C(F)(F)F)cccc2c(=O)o1` gave a melting point of 176 °C.

`Cc1cccc(C=CC=C2SC(=S)N(CC(=O)O)C2=O)c1`: the melting point lay within 220 to 226 °C.

`O=c1cc(-c2cccnc2)oc2ccccc12` gave a melting point of 123 to 124 °C.

`CCc1cc(C(=O)OC)c(Nc2ccc(OC)cc2[N+](=O)[O-])s1`: the melting point fell in the range of 125 to 127 °C.

In the case of `CCCSC1=Nc2ccccc2SN1`, the melting point lay in the range of 168 to 170 °C.

In turn, `O=S(=O)(Nc1cc(O)ccc1Oc1ccccc1)C(F)(F)F` returned a melting point of 97 to 99 °C.

Consider `COc1ccc(S(=O)(=O)n2ccc3ccnc(-c4ccc(C(F)(F)F)cc4)c32)cc1`, for which the melting point lay in the range of 143 to 145 °C.

Regarding `CC(C)(C)OC(=O)NCCC(=O)N[C@@H](CC(=O)OCc1ccccc1)C(=O)NCCc1ccc(OCC(=O)OCc2ccccc2)cc1`, the melting point was in the range of 123 to 124 °C.

`COc1ccc(C(=O)Cc2cccnc2)cc1` came in with a melting point of 71 to 72 °C.

Take `Cn1c2ccncc2c(=O)n2nccc12`: the melting point was greater than 300 °C.

In turn, `O=C(c1cccs1)c1cnn2c(-c3cccc(NCC=C(c4ccccc4)c4ccccc4)c3)ccnc12` displayed a melting point of 156 to 158 °C.

`CCOC(=O)c1cc(-n2c(OC)nc(C(F)(F)F)cc2=O)c(F)cc1Cl` yielded a melting point of 91 to 93 °C.

The molecule `O=[N+]([O-])c1ccc(N2CCN(c3ccncc3)CC2)cc1` yielded a melting point of 213 to 216 °C.

As for `COc1cc(Br)c(Br)cc1C=NNC(=N)NN=Cc1cc(Br)c(Br)cc1OC`, the melting point is 265 to 267 °C.

In the case of `CS(=O)(=O)c1ccc(Oc2cc(OCC3CCOCC3)c3[nH]c(C4=NCC(CCO)S4)cc3c2)cc1` (stereo not given), the melting point is 104 to 105 °C.

As to `CCOC(=O)c1nnc(NS(=O)(=O)c2ccc(NC(C)=O)cc2)s1`, the melting point fell in the range of 201 to 202 °C.

For the origin of these results see a melting point compilation (Tetko et al.; mined from patent text by program, amines drawn as free bases though some values may be those of a salt).
